These results are taken from patent US20260356804A1, “SODIUM CHANNEL BLOCKING COMPOUNDS, DERIVATIVES THEREOF, AND METHODS OF THEIR USE” (LATIGO BIOTHERAPEUTICS, INC., priority 2022, published 2026).

SMILES strings stand for the structures. pIC50: −log10 of the molar value.

The term pIC50 denotes −log10 of the IC50, conventionally taken in molar units.

T1 sequence (Q9Y5Y9 whole entry): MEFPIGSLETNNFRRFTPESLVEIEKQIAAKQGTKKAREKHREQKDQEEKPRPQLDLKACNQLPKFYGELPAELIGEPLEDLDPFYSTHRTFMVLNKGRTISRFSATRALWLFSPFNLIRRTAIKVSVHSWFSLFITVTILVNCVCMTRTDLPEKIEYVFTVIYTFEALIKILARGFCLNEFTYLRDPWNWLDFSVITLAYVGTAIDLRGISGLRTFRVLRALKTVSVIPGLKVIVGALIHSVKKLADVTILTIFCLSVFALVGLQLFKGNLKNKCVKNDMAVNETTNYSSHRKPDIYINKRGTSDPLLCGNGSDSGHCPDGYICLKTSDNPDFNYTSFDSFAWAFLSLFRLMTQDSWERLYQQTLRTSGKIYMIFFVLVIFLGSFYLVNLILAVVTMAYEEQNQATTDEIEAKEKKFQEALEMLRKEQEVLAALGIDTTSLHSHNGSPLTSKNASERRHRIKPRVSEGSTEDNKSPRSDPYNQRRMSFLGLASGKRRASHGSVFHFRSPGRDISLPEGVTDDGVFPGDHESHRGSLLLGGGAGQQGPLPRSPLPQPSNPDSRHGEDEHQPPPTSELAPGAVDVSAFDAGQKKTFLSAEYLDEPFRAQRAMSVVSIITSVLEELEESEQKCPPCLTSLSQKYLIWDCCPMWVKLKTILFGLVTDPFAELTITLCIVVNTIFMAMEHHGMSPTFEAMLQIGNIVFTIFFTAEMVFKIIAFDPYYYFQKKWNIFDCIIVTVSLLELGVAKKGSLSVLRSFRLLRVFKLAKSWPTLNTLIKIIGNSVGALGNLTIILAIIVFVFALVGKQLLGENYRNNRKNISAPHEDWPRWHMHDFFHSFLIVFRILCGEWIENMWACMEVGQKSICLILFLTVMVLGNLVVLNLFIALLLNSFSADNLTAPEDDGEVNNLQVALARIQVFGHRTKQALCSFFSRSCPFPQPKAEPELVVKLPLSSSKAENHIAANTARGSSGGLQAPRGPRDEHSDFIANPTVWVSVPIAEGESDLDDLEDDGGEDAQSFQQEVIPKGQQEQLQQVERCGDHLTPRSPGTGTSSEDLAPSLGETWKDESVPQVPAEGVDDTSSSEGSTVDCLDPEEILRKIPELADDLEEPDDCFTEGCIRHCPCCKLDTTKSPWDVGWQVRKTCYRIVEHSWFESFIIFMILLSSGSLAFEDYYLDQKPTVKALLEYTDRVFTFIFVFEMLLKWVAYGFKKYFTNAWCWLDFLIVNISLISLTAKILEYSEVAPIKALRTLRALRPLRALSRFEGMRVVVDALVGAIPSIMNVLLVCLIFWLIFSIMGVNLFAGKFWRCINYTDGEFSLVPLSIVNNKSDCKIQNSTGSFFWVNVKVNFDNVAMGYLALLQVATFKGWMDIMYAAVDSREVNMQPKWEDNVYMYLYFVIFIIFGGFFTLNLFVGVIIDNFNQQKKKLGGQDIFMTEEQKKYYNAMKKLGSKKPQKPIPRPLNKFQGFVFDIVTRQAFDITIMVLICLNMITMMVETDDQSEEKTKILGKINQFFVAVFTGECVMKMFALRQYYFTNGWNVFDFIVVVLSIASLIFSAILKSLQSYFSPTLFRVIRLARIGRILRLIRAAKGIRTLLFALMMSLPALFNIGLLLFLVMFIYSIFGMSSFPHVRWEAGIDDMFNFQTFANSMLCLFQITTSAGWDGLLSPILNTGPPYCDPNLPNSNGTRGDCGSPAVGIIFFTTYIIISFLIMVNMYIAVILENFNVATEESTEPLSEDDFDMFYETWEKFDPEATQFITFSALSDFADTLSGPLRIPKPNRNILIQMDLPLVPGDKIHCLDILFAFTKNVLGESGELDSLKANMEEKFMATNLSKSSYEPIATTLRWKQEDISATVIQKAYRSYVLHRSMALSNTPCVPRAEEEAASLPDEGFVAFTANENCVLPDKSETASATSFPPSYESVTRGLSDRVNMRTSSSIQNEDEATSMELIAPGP
T1 sequence (Q07699 19-218 partner): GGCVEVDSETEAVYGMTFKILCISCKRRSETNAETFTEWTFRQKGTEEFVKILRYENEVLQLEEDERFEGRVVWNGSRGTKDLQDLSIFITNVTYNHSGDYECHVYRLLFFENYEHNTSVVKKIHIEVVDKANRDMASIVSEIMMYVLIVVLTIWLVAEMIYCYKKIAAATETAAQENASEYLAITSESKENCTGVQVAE

The first assay has as its target T1, human Nav1.8/β1 (Homo sapiens, UniProt Q9Y5Y9).
T1 construct: host or cells: HEK293
Description: Compound Profiling Human NaV1.8/β1 Cell Line—Sophion QPatch II Assay (automated patch clamp, stably transfected HEK293 cells). In kind it is cell-based.
Conditions: not given
On the procedure:
Compounds were tested on recombinant human Nav1.8/β1 stably transfected HEK293 (Eurofins, CYL3025, St. Charles, MO) cells using the QPatch II system (Sophion Bioscience A/S, Ballerup—Denmark), an automated patch clamp device. Cells were cultured at 37° C./5% CO2 in DMEM/F-12 supplemented with 10% fetal bovine serum, 1× Non-Essential Amino Acids, and selection antibiotics (0.625 μg/mL Puromycin, 400 μg/mL Geneticin, and 100 μg/mL Hygromycin). One or two days prior to recording, cells were moved to a lower temperature 30° C./5% CO2 incubator to increase surface expression of the channels. On the day of the recordings, cells in culture dishes were washed twice with Ca^2+—Mg^2+ free DPBS and treated with Detachin (Genlantis, San Diego) for 3 minutes and then resuspended in Serum Free Medium (EX-CELL® ACF CHO Medium for Cell Culture (Sigma-Aldrich) supplemented with 0.04 mg/mL soybean trypsin Inhibitor and 25 mM HEPES (all components supplied by Sigma-Aldrich, St. Louis, MO) and allowed to recover for a minimum of 20 minutes in the onboard QStirrer. All experiments were performed at ambient temperature. Intracellular solution contained (mM): CsCl, 50; CsF, 90; MgCl2, 2; EGTA, 5; HEPES, 10; pH adjusted to 7.2 with CsOH. Extracellular solution contained (mM): NaCl, 137; KCl, 4; CaCl2), 3.8; MgCl2, 1; HEPES, 10; Glucose, 10; pH adjusted to 7.4 with NaOH. [LEFT OUT].
Compounds were tested in an interleaved manner across two cohorts of wells to develop an aggregate 8-point concentration response curve. Final concentrations include 0.1% DMSO and 0.03% pluronic Acid. In general, the concentration range spans a range from 0.01-300 nM. Compounds were diluted 1:10 with extracellular solution within their respective cohort. DMSO (0.1% by volume) served as a vehicle control to ascertain assay performance.
(§1) Whole cell patch clamp recordings were conducted according to Sophion standard procedure for QPatch II®. Cells were held at a holding potential of −120 mV. A depolarizing step to 10 mV for 30 ms was applied to elicit inward Na^+ currents. Inter-sweep interval was 15 sec. Following establishment of the whole-cell configuration in extracellular solution, cells were washed twice in extracellular solution containing 0.1% DMSO and 0.03% pluronic acid to stabilize the baseline current. Compounds were then applied by the QPatch II system into each well in an ascending manner within cohort and the current was recorded for five minutes for each concentration. Percent of current remaining was determined by taking the average of the last 5 sweeps within each concentration and normalizing to the latest pre-compound saline period. The potency (IC50) values of the compounds were only assessed against resting state block. Wells whose initial sodium current magnitude were below 2 nA or whole cell resistance fell below 100 MΩ were excluded from analysis.
as §1, with “MO” for “MΩ”, “analysis. […]” for “analysis.”
For the compound `COc1cc(C#N)ccc1Oc1cc(C(F)(F)F)c(Cl)cc1C(=O)Nc1ccc(F)c([S@](C)(=N)=O)c1` [Example 8A, (R)-5-chloro-2-(4-cyano-2-methoxyphenoxy)-N-(4-fluoro-3-(S-methylsulfonimidoyl)phenyl)-4-(trifluoromethyl)benzamide], the pIC50 is 7.30 to 8.30.

On to `Cc1nc(F)ccc1Oc1ncc(C(F)(F)F)c(C)c1C(=O)Nc1cccc([S@@](=N)(=O)CCN(C)C)c1` [Example 75C], for which the pIC50 is 7.30 to 8.30. Same read-out and setting: in the case of `Cc1nc(F)ccc1Oc1ncc(C(F)(F)F)c(C)c1C(=O)Nc1cccc([S@](=N)(=O)CCO)c1` [Example 67C] it was 7.30 to 8.30; in that of `Cc1nc(F)ccc1Oc1ncc(C(F)(F)F)c(C)c1C(=O)Nc1cccc(S(=N)(=O)CCC(C)(C)N)c1` (stereo not shown) [Example 52C], 7.30 to 8.30.

As for `Cc1nc(F)ccc1Oc1ncc(C(F)(F)F)c(C)c1C(=O)Nc1cccc([S@@](=N)(=O)CCO)c1` [Example 66C], the pIC50 is 7.00 to 7.30. Compound `Cc1nc(F)ccc1Oc1ncc(C(F)(F)F)c(C)c1C(=O)Nc1cncc([S@@](C)(=N)=O)c1` [Example 62C] showed a pIC50 of less than 6.70. Same read-out and setting: the same measure for `Cc1nc(F)ccc1Oc1ncc(C(F)(F)F)c(C)c1C(=O)Nc1cccc([S@](=N)(=O)CCCN(C)C)c1` [Example 73C]: 7.30 to 8.30; for `CNCCCS(=N)(=O)c1cccc(NC(=O)c2c(Oc3ccc(F)nc3C)ncc(C(F)(F)F)c2C)c1` (stereo not shown) [Example 74C]: 7.30 to 8.30; for `CCC(N)(CC)CCS(=N)(=O)c1cccc(NC(=O)c2c(Oc3ccc(F)nc3C)ncc(C(F)(F)F)c2C)c1` (stereo not shown) [Example 41C, N-(3-(3-amino-3-ethylpentylsulfonimidoyl)phenyl)-2-((6-fluoro-2-methylpyridin-3-yl)oxy)-4-methyl-5-(trifluoromethyl)nicotinamide]: 7.30 to 8.30. Same read-out and setting: the same measure for `Cc1nc(F)ccc1Oc1ncc(C(F)(F)F)c(C)c1C(=O)Nc1cccc(S(=N)(=O)CCC(C)(C)O)c1` (stereo not shown) [Example 42C, 2-((6-fluoro-2-methylpyridin-3-yl)oxy)-N-(3-(3-hydroxy-3-methylbutylsulfonimidoyl)phenyl)-4-methyl-5-(trifluoromethyl)nicotinamide]: less than 6.70. The same measure, in the same setting: in the case of `COc1cc(C#N)ccc1Oc1ncc(C(F)(F)F)c(C)c1C(=O)Nc1cccc([S@](=N)(=O)CCCO)c1` [Example 57C] it was 7.30 to 8.30. `Cc1nc(F)ccc1Oc1cc(C(F)(F)F)ccc1C(=O)Nc1ccc(F)c([S@](C)(=N)=O)c1` [Example 30A] gave a pIC50 of 6.70 to 7.00. `Cc1nc(F)ccc1Oc1ncc(C(F)(F)F)c(C)c1C(=O)N(C)c1cccc([S@](C)(=N)=O)c1` [Example 46C, (R)-2-((6-fluoro-2-methylpyridin-3-yl)oxy)-N,4-dimethyl-N-(3-(S-methylsulfonimidoyl)phenyl)-5-(trifluoromethyl)nicotinamide] gave a negative logarithm of the IC50 (pIC50) of less than 6.70. Still for that read-out and setting: in the case of `Cc1nc(F)ccc1Oc1ncc(C(F)(F)F)c(C)c1C(=O)Nc1cccc([S@@](=N)(=O)CCCN(C)C)c1` [Example 72C] it was 7.30 to 8.30; in that of `Cc1nc(F)ccc1Oc1ncc(C(F)(F)F)c(C)c1C(=O)Nc1cccc(S(=N)(=O)CC(C)(C)N)c1` (stereo not shown) [Example 53C], 7.30 to 8.30; in that of `COc1cc(C#N)ccc1Oc1cc(C(F)(F)F)c(Cl)cc1C(=O)Nc1ccc(F)c([S@@](C)(=N)=O)c1` [Example 26A], less than 6.70. On the same count and under the same terms, the same measure for `CNCCCS(=O)(=O)c1cccc(NC(=O)c2c(Oc3ccc(F)nc3C)ncc(C(F)(F)F)c2C)c1` [Example 71C]: 7.30 to 8.30. The same measure, in the same setting: the same measure for `CNC(C)(C)CS(=N)(=O)c1cccc(NC(=O)c2c(Oc3ccc(F)nc3C)ncc(C(F)(F)F)c2C)c1` (stereo not shown) [Example 51C]: 7.30 to 8.30; for `Cc1nc(F)ccc1Oc1ncc(C(F)(F)F)c(C)c1C(=O)Nc1cccc([S@](=N)(=O)CCN(C)C)c1` [Example 76C]: 7.30 to 8.30. Compound `Cc1nc(F)ccc1Oc1cc(C(F)(F)F)ccc1C(=O)Nc1ccc(F)c([S@@](C)(=N)=O)c1` [Example 29A] had a pIC50 of less than 6.70. The compound `Cc1nc(F)ccc1Oc1cc(C(F)(F)F)ccc1C(=O)Nc1cccc([S@@](C)(=N)=O)c1` [Example 31A] had a negative logarithm of the IC50 (pIC50) of 6.70 to 7.00.

`Cc1nc(F)ccc1Oc1ncc(C(F)(F)F)c(C)c1C(=O)Nc1cc(S(=N)(=O)CCCO)ccn1` (stereo not shown) [Example 49C]: the pIC50 is less than 6.70. The same measure, in the same setting: in the case of `Cc1nc(F)ccc1Oc1ncc(C(F)(F)F)c(C)c1C(=O)Nc1cc(S(C)(=N)=O)ccn1` (stereo not shown) [Example 63C] it was less than 6.70; in that of `Cc1nc(F)ccc1Oc1ncc(C(F)(F)F)c(C)c1C(=O)Nc1cccc([S@]2(=O)=NCCC2)c1` [Example 79C], 7.30 to 8.30. Same read-out and setting: in the case of `Cc1nc(F)ccc1Oc1nc(C(F)(F)F)c(Cl)cc1C(=O)Nc1ccnc([S@](C)(=N)=O)c1` [Example 81C] it was less than 6.70; in that of `Cc1nc(F)ccc1Oc1cc(C(F)(F)F)ccc1C(=O)Nc1ccnc([S@](C)(=N)=O)c1` [Example 28A], less than 6.70. The same measure, in the same setting: the same measure for `Cc1nc(F)ccc1Oc1ccc(C(F)(F)F)c(Cl)c1C(=O)Nc1ccnc([S@](C)(=N)=O)c1` [Example 32A]: 7.30 to 8.30; for `CC[S@@](=N)(=O)c1cccc(NC(=O)c2c(Oc3ccc(F)nc3C)ncc(C(F)(F)F)c2C)c1` [Example 82C]: 7.00 to 7.30; for `Cc1nc(F)ccc1Oc1ncc(C(F)(F)F)c(C)c1C(=O)Nc1cccc([S@](=N)(=O)CCCO)c1` [Example 69C]: 6.70 to 7.00. As for `Cc1c(C(F)(F)F)cnc(Oc2ccc(F)nc2CO)c1C(=O)Nc1cccc([S@@](C)(=N)=O)c1` [Example 83C], the pIC50 was less than 6.70. Still for that read-out and setting: the same measure for `CNCCCS(=N)(=O)c1cccc(NC(=O)c2c(Oc3ccc(C#N)cc3OC)ncc(C(F)(F)F)c2C)c1` (stereo not shown) [Example 60C]: greater than 8.30; for `Cc1nc(F)ccc1Oc1ncc(C(F)(F)F)c(C)c1C(=O)N[C@H]1C[C@@H](C(N)=O)C1` [Example 85C]: less than 6.70.

The same assay, now with this note: P1, resting state block; Nav1.8/β1 HEK293 cells, holding potential −120 mV; first set of compounds; read-out: P1 (IC50, resting state block).
Consider `Cc1nc(F)ccc1Oc1cc(C(F)(F)F)ccc1C(=O)Nc1ccnc([S@@](C)(=N)=O)c1` [Example 18A], for which the pIC50 is less than 6.70.

The same assay, now with this note: P1, resting state block; Nav1.8/β1 HEK293 cells, holding potential −120 mV; fourth set of compounds; read-out: P1 (IC50, resting state block).
Consider `Cc1nc(F)ccc1Oc1ncc(C(F)(F)F)c(C)c1C(=O)Nc1cccc(S2(=O)=NC(=O)CC2)c1` (single isomer, unassigned) [Example 31D, 2-((6-fluoro-2-methylpyridin-3-yl)oxy)-4-methyl-N-(3-(1-oxido-3-oxo-4,5-dihydro-3H-1l6-isothiazol-1-yl)phenyl)-5-(trifluoromethyl)nicotinamide], for which the pIC50 was 7.00 to 7.30. The same measure, in the same setting: the same measure for `Cc1nc(F)ccc1Oc1ncc(C(F)(F)F)c(C)c1C(=O)Nc1cccc(S2(=O)=NC(=O)CC2)c1` (single isomer, unassigned) [Example 30D, 2-((6-fluoro-2-methylpyridin-3-yl)oxy)-4-methyl-N-(3-(1-oxido-3-oxo-4,5-dihydro-3H-1l6-isothiazol-1-yl)phenyl)-5-(trifluoromethyl)nicotinamide]: less than 6.70.

Still in this assay, the particulars now being: P1, resting state block; Nav1.8/β1 HEK293 cells, holding potential −120 mV; third set of compounds; read-out: P1 (IC50, resting state block).
With `Cc1nc(F)ccc1Oc1cc(C(F)(F)F)c(Cl)cc1C(=O)Nc1ccnc([S@@](C)(=N)=O)c1` [Example 77C], the pIC50 is less than 6.70.

On to `CNCC[S@@](=N)(=O)c1cccc(NC(=O)c2c(Oc3ccc(F)nc3C)ncc(C(F)(F)F)c2C)c1` [Example 64C], for which the pIC50 was 7.30 to 8.30.
